From patent US20250346606A1, “CAMPTOTHECIN COMPOUND, PREPARATION METHOD THEREFOR, AND APPLICATION THEREOF” (SICHUAN KELUN-BIOTECH BIOPHARMACEUTICAL CO., LTD., priority 2021, published 2025)
Read-outs that look alike come from different tables or passages of the source.

Experiments:
Format in all cases: cell-based, Human
A549 cells = assay: Inhibitory effect of compounds on A549 cell proliferation; details: read-out: IC50, inhibitory activity on A549 cell proliferation
Hela cells = assay: Inhibitory effect of compounds on Hela cell proliferation; details: read-out: IC50, inhibitory activity on Hela cell proliferation
MDA-MB-231 cells = assay: Inhibitory effect of compounds on MDA-MB-231 cell proliferation; details: read-out: IC50, inhibitory activity on MDA-MB-231 cell proliferation
Protocol: (1) Cell plating: First, tumor cells MDA-MB-231 were cultured in corresponding medium, then digested with trypsin, centrifuged, resuspended, and counted, and the cells were adjusted to an appropriate concentration for plating.
Co-incubation of the compound of the present disclosure and tumor cells: after the cells adhered to the wall, the medium was removed, and the diluted bioactive molecule (the compound of the present disclosure) was added to the wells of the above plate, and incubated for 72 h.
In vitro cell viability detection: After the incubation, 50 μL of Cell Counting-Lite™ 2.0 reagent (Vazyme/Novazyme) was added to each well, shaken and mixed well in the dark, reacted for 10 minutes, and then the detection was carried out with a microplate reader (manufacturer: BMG, Model: PHERAStar-FS) for reading. The background RLU was obtained by using cell-free medium (with Cell Counting-Lite™), and the vehicle RLU was obtained by using cell-containing medium (with Cell Counting-Lite™). Cell inhibition rate=1−(sample RLU−background RLU)/(solvent RLU−background RLU)×100%. According to the four-parameter model fitting curve, the half maximal inhibitory concentration (IC50) of the compound was calculated, and the detection results were shown in Table 18.

Jeko-1 cells = assay: Inhibitory effect of compounds on Jeko-1 cell proliferation; details: read-out: IC50, inhibitory activity on Jeko-1 cell proliferation
Procedure, shortened: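 After 72 h incubation with compound, Jeko-1 cell viability was measured by Cell Counting-Lite 2.0 luminescence (10 min reaction). Inhibition was calculated relative to vehicle and cell-free background RLU, and IC50 was obtained by four-parameter curve fitting.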

Molecule | IC50 (A549 cells; A549 human lung cancer cells, 72 h incubation, Cell Counting-Lite 2.0) [nM] | IC50 (Hela cells; Hela human cervical cancer cells, 72 h incubation, Cell Counting-Lite 2.0) [nM] | IC50 (MDA-MB-231 cells; MDA-MB-231 human breast cancer cells, 72 h incubation, Cell Counting-Lite 2.0) [nM] | IC50 (Jeko-1 cells; Jeko-1 human mantle cell lymphoma cells, 72 h incubation, Cell Counting-Lite 2.0) [nM] | IC50 (A549 cells; Homo sapiens, A549, 72 h) [nM] | IC50 (Hela cells; Homo sapiens, HeLa, 72 h) [nM] | IC50 (MDA-MB-231 cells; Homo sapiens, MDA-MB-231, 72 h) [nM] | IC50 (Jeko-1 cells; Homo sapiens, JeKo-1, 72 h) [nM]
(2S)—N-((1S,9S)-5-chloro-9-ethyl-9-hydroxy-4-methyl-10,13-dioxo-2,3,9,10,13,15-hexahydro-1H,12H-benzo[de]pyrano[3′,4′:6,7]indolizino[1,2-b]quinolin-1-yl)-2-hydroxypropylamine [Example 4 (2-7-A)] | 6.97 | 13.8 | 124 | 0.28 | – | – | – | –
CC[C@@]1(O)C(=O)OCc2c1cc1n(c2=O)Cc2c-1nc1cc(Cl)c(C)c3c1c2[C@@H](NC(=O)[C@@H](O)C1CC1)CC3 [Example 5 (2-12-A), (2S)—N-((1S,9S)-5-chloro-9-ethyl-9-hydroxy-4-methyl-10,13-dioxo-2,3,9,10,13,15-hexahydro-1H,12H-benzo[de]pyrano[3′,4′:6,7]indolizino[1,2-b]quinolin-1-yl)-2-cyclopropyl-2-hydroxyacetamide] | – | – | – | – | 6.96 | 13.2 | 124 | –
CC[C@@]1(O)C(=O)OCc2c1cc1n(c2=O)Cc2c-1nc1cc(Cl)c(C)c3c1c2[C@H](NC(=O)[C@@H](O)C1CC1)CC3 [Example 5 (2-12-B), (2S)—N-((1R,9S)-5-chloro-9-ethyl-9-hydroxy-4-methyl-10,13-dioxo-2,3,9,10,13,15-hexahydro-1H,12H-benzo[de]pyrano[3′,4′:6,7]indolizino[1,2-b]quinolin-1-yl)-2-cyclopropyl-2-hydroxyacetamide] | – | – | – | – | 5.52 | 16.7 | – | –
CC#C[C@@H](O)C(=O)N[C@H]1CCc2c(C)c(F)cc3nc4c(c1c23)Cn1c-4cc2c(c1=O)COC(=O)[C@]2(O)CC [Example 1 (1-1-A), (R)—N-((1S,9S)-9-ethyl-5-fluoro-9-hydroxy-4-methyl-10,13-dioxo-2,3,9,10,13,15-hexahydro-1H,12H-benzo[de]pyrano[3′,4′:6,7]indolizino[1,2-b]quinolin-1-yl)-2-hydroxypent-3-yneamide] | – | – | – | – | 66.6 | 4.57 | 364 | 1.33
